Laboratory results taken from publication PMC7598271, “In Vitro Studies to Define the Cell-Surface and Intracellular Targets of Polyarginine-Conjugated Sodium Borocaptate as a Potential Delivery Agent for Boron Neutron Capture Therapy” (Cells, 2020).

Legend:
[1] = tested on: CD44 protein; test: Immunoprecipitation with anti-BSH antibody and Western blotting for CD44; assay type: binding, human; conditions: MDA-MB-231 cell lysate 2000 µg/mL, compound 20 µM, 1 h at 4 °C, anti-BSH antibody 10 µg/mL, Western blotting (Figure 3A)
Procedure: (§1) Western blotting was performed as previously described. The cells were lysed in cell lysis buffer (20 mM Tris-HCl (pH =7.5), 150 mM NaCl, 1 mM EDTA, 1 mM Na2EGTA (ethylene glycol-bis(β-aminoethyl ether)-N,N,N′,N′-tetraacetic acid), 0.5% Triton X-100) supplemented with cOmplete Protease Inhibitor Cocktail (Sigma-Aldrich Co. LLC, St. Louis, MO, USA), and PhosSTOP phosphatase inhibitor cocktail (Sigma-Aldrich Co. LLC, St. Louis, MO, USA). After sonication and centrifugation (15,000 rpm, 4 °C, 10 min), the protein concentration of the supernatants was measured using a bicinchoninic acid (BCA) protein assay (Thermo Fisher Scientific, Inc., Waltham, MA, USA). The supernatants were added to 1/3 volume of 4x SDS sample buffer (240 mM Tris-HCl (pH=6.8), 8% sodium dodecyl sulfate (SDS), 40% glycerol, 0.1% bromophenol blue, 20% 2-mercaptoethanol) and boiled at 95 °C for 5 min. Then, the samples were applied to SDS-polyacrylamide gel electrophoresis (PAGE) and transferred to polyvinylidene fluoride (PVDF) membrane (Immobilon-P, 0.45 µm) (MilliporeSigma, Burlington, MA, USA). […] The signals were developed with Clarity Western enhanced chemiluminescence (ECL) Substrate (Bio-Rad Laboratories, Inc., Hercules, CA, USA) and detected with a ChemiDoc imaging system (Bio-Rad Laboratories, Inc., Hercules, CA, USA). […]

[2] = target: T1, eRF3 (Homo sapiens, UniProt P15170); test: Immunoprecipitation with anti-BSH antibody from U251 cell lysate, Western blotting; assay type: binding; conditions: lysate with or without 10 µg/mL RNase A, 1 h at room temperature (Figure 6B)
T1 construct: we performed immunoprecipitation from the pre-cleaned lysate of U251 cells; endogenous in cells; host or cells: U251 glioma cell lysate
T1 sequence (P15170 whole entry): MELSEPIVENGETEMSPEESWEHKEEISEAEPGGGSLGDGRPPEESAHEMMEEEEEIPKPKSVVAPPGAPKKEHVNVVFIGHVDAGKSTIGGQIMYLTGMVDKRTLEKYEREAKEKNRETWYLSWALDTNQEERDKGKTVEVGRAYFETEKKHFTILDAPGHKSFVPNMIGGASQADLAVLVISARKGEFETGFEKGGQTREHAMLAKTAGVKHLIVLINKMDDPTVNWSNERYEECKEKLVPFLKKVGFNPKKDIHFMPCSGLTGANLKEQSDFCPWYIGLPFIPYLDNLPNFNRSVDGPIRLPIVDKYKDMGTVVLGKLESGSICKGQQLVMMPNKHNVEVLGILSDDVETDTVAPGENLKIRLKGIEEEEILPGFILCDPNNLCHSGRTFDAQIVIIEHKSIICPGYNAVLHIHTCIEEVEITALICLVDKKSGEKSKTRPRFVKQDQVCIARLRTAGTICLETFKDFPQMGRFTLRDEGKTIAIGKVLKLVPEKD
Procedure: (§2) Western blotting was performed as previously described. The cells were lysed in cell lysis buffer (20 mM Tris-HCl (pH =7.5), 150 mM NaCl, 1 mM EDTA, 1 mM Na2EGTA (ethylene glycol-bis(β-aminoethyl ether)-N,N,N′,N′-tetraacetic acid), 0.5% Triton X-100) supplemented with cOmplete Protease Inhibitor Cocktail (Sigma-Aldrich Co. LLC, St. Louis, MO, USA), and PhosSTOP phosphatase inhibitor cocktail (Sigma-Aldrich Co. LLC, St. Louis, MO, USA). After sonication and centrifugation (15,000 rpm, 4 °C, 10 min), the protein concentration of the supernatants was measured using a bicinchoninic acid (BCA) protein assay (Thermo Fisher Scientific, Inc., Waltham, MA, USA). The supernatants were added to 1/3 volume of 4x SDS sample buffer (240 mM Tris-HCl (pH=6.8), 8% sodium dodecyl sulfate (SDS), 40% glycerol, 0.1% bromophenol blue, 20% 2-mercaptoethanol) and boiled at 95 °C for 5 min. Then, the samples were applied to SDS-polyacrylamide gel electrophoresis (PAGE) and transferred to polyvinylidene fluoride (PVDF) membrane (Immobilon-P, 0.45 µm) (MilliporeSigma, Burlington, MA, USA). The membranes were blocked with 0.5% skim milk (nacalai tesque, Kyoto, Japan) in tris-buffered saline with tween20 (TBST, 137 mM NaCl, 2.68 mM KCl, 25 mM Tris (pH=7.4), 0.1% Tween20) and incubated with primary antibodies for 16 h at 4 °C and secondary antibodies for 1 h at room temperature. The signals were developed with Clarity Western enhanced chemiluminescence (ECL) Substrate (Bio-Rad Laboratories, Inc., Hercules, CA, USA) and detected with a ChemiDoc imaging system (Bio-Rad Laboratories, Inc., Hercules, CA, USA).
(§3) Immunoprecipitation was performed as previously described with modification. Briefly, the cells were lysed in cell lysis buffer supplemented with cOmplete Protease Inhibitor Cocktail and PhosSTOP phosphatase inhibitor cocktail. The lysate was passed through a 23G needle syringe 10 times and centrifuged at 15,000 rpm, at 4 °C, for 10 min. […]

[3] = target: T2, eIF4G (Homo sapiens, UniProt Q04637); test: as above; assay type: binding
T2 construct: we performed immunoprecipitation from the pre-cleaned lysate of U251 cells; endogenous in cells; host or cells: U251 (U251MG) glioma cells
T2 sequence (Q04637 whole entry): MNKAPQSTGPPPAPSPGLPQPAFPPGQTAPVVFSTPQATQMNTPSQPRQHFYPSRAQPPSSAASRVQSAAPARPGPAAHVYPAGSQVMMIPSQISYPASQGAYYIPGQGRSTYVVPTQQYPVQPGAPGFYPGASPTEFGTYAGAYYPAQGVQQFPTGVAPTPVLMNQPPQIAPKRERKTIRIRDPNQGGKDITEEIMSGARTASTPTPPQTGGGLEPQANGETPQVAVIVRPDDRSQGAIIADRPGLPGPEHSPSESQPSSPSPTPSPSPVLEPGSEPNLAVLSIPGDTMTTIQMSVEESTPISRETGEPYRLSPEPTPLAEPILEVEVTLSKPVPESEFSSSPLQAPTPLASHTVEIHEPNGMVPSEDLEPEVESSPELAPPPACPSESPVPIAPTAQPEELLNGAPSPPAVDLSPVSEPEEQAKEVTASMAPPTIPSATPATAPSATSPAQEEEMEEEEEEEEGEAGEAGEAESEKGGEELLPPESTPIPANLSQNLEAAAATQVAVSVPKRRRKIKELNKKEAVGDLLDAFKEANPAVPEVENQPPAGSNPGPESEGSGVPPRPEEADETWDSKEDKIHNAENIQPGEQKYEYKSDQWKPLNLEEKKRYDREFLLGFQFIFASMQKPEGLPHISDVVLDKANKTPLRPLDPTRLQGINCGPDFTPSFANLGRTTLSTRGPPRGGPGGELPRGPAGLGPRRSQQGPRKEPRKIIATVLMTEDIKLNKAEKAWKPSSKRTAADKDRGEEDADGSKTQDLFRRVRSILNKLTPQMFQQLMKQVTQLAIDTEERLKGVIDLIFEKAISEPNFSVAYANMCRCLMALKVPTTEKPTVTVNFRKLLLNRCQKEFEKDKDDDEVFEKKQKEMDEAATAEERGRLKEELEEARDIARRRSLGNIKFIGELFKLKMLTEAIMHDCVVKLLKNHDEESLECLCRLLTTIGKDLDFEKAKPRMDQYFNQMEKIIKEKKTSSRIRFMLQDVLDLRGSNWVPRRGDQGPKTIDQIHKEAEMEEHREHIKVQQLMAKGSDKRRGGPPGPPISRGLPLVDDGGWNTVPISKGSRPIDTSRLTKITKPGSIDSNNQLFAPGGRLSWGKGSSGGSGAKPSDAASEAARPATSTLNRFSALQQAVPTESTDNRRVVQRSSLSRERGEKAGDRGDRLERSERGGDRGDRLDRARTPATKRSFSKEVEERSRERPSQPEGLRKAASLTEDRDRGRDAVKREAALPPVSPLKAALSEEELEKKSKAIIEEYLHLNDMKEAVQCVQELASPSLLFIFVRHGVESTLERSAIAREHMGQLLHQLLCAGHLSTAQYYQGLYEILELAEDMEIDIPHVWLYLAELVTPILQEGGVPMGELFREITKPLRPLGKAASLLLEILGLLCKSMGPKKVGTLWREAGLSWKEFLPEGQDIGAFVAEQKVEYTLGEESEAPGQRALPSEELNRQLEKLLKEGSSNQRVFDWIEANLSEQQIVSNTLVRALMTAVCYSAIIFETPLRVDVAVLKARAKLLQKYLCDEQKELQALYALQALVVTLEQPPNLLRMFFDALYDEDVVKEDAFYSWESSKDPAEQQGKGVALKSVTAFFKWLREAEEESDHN
Procedure: as §2, §3

[4] = tested on: NMuMG-GFP, NMuMG-HRas/shp53 and NMuMG-HRas/shp53/YAP1 cells; test: Immunofluorescent analysis of uptake in transformed NMuMG cells; assay type: cell-based, murine; conditions: BSH 2 mM, NMuMG-HRas/shp53, NMuMG-HRas/shp53/YAP1 (Figure 4C)
Text: For transformation of the NMuMG cells, we prepared virus particles of pTomo-HRas/shRNA-p53 (Vector plasmid was a kind gift from Dr. Dinorah Morvinski, Tel Aviv University), pTomo (Addgene, #26291), FUW-tetO-wtYAP (Addgene, #84009), and FUdeltaGW-rtTA (Addgene, #19780), and infected cells in the same manner as written above. After the infection of pTomo viruses (pTomo-HRas/shRNA-p53 was used for malignant transformation, with pTomo for a negative control), the cells were further treated with adenovirus harboring Cre recombinase (cat#ADV-005) (Cell Biolabs Inc., San Diego, CA, USA), to activate the HRas expression cassette. The transformation was confirmed by the acquisition of the spheroid-forming capacity and morphological change (epithelial to spindle form).
(§4) The immunostaining of cells was performed as previously described with brief modifications. The cells were fixed with 4% paraformaldehyde (PFA) for 15 min, permeated with 0.05% Triton X-100 for 10 min, and blocked with 5% goat serum. Then, the samples were incubated with primary antibodies for 16 h at 4 °C and secondary antibodies for 1 h at room temperature. Primary antibodies against CD44 were purchased from Abcam (Cambridge, UK) (ab157107). Antibodies against the BSH molecule (clone#: 36-2H or 38-5C) were developed by ITM Co., Ltd. (Nagano, Japan). […]

[5] = target: T3, poly(A)-binding protein 1 (PABP1) (Homo sapiens, UniProt P11940); test: Immunoprecipitation with anti-BSH antibody from U251 cell lysate, Western blotting
T3 construct: we performed immunoprecipitation from the pre-cleaned lysate of U251 cells; endogenous in cells; host or cells: U251 (U251MG) glioma cells
T3 sequence (P11940 whole entry): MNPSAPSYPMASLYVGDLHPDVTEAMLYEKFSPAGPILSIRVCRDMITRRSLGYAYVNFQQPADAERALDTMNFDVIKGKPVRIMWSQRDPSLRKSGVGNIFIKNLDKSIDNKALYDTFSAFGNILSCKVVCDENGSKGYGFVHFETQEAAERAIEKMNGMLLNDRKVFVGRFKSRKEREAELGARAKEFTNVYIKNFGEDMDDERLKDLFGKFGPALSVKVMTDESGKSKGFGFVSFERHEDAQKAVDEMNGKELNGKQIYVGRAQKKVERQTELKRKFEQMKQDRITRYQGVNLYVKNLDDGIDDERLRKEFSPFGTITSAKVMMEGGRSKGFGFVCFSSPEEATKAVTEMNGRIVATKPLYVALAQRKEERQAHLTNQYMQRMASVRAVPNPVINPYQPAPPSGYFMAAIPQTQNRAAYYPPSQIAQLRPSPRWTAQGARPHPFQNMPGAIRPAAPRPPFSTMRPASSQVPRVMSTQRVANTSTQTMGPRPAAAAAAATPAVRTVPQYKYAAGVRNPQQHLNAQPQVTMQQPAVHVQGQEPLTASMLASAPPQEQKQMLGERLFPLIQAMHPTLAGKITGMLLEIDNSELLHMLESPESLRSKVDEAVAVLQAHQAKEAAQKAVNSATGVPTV
Procedure: as §2, §3

[6] = target: T4, eIF4A (Homo sapiens, UniProt P60842); test: as above; assay type: binding; conditions: lysate with or without 10 µg/mL RNase A, 1 h at room temperature (Figure 6B)
T4 construct: we performed immunoprecipitation from the pre-cleaned lysate of U251 cells; endogenous in cells; host or cells: U251 glioma cell lysate
T4 sequence (P60842 whole entry): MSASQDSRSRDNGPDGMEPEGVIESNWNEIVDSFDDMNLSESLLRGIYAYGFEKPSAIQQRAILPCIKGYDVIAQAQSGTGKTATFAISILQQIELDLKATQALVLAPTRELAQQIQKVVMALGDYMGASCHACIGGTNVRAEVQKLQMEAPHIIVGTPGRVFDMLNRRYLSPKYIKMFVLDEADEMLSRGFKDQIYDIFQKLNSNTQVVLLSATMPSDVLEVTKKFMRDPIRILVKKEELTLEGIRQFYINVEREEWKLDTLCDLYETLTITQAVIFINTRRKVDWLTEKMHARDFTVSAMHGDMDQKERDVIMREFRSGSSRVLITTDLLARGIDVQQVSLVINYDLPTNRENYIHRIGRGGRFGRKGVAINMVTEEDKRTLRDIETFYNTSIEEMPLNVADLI
Procedure: as §1

[7] = tested on: U251MG cells; test: Immunofluorescent analysis of cellular uptake with anti-BSH antibody; assay type: cell-based, human; conditions: U251 glioma cells, 20 µM, immunofluorescent analysis (Figure 1B)
Procedure: Human glioma cell lines U87MG and U251MG, human breast cancer cell lines MCF7 and MDA-MB-231, human pancreatic cancer cell lines CFPAC1 and PANC1, and murine mammary gland cell line NMuMG, were cultured in Dulbecco’s modified Eagle’s medium (DMEM) (FUJIFILM Wako Pure Chemical Corporation, Osaka, Japan) with 10% fetal bovine serum (FBS) (Corning Inc., Corning, NY, USA) and penicillin/streptomycin/L-glutamine (Fujifilm-Wako, Japan) as previously described. U87MG, MDA-MB-231, CFPAC-1, PANC-1, and NMuMG were obtained from the American Type Culture Collection (ATCC, Manassas, VA, USA) (catalogue number: HTB-14, HTB-26, CRL-1918, CRL-1469, and CRL-1636, respectively). U251MG and MCF7 were obtained from the Japanese Collection of Research Bioresources Cell Bank (JCRB, Ibaraki, Japan) (catalogue number: IFO50288 and JCRB0134, respectively).
as §4

[8] = immunoprecipitation with 20 µM of BSH, BSH-3R, BSH-11R (Figure 7A)
[9] = lysate with or without 10 µg/mL RNase A, 1 h at room temperature (Figure 6B)

mercaptoundecahydrododecaborate [BSH]
co-precipitation of CD44 protein with anti-BSH antibody [1]: failed to precipitate CD44
binding to eRF3 [2]: did not bind to BSH
eIF4G binding, dependence on arginine length [3, 8]: did not observe a significant difference
RNA dependence of binding to eIF4G [3, 9]: little eIF4G was pulled-down with BSH in the presence of RNA
BSH immunofluorescent signal in cells [4]: did not show any signals in all types of cells
PABP1 binding, dependence on arginine length [5, 8]: bound to BSH in an RNA-dependent manner
RNA dependence of binding to PABP1 [5, 9]: bound to PABP1 in the presence of RNA
binding to PABP1 (immunoprecipitation) ([5]; pre-cleaned U251 lysate, 20 µM (Figure 6A)): had a binding capacity with poly(A)-binding protein 1 (PABP1)
RNA dependence of binding to eIF4A [6]: did not bind to BSH in the presence or absence of RNA
passage through the plasma membrane [7]: could not
